Tested on: platelet rich plasma (PRP)
Test: 96 well plate light transmission platelet aggregation assay, dose response to multiple agonists
Format: cell-based
Conditions: for platelet reactivity induced by the agonist (dose response curve): PRP of an inflamed rheumatoid arthritis patient, compared to the normal population (n=50), FIG. 3
Procedure: Healthy subjects who had not taken any antiplatelet medication in the 14 days prior to the study were recruited. Subjects refrained from intensive exercise and tobacco use for 4 hours prior to early morning phlebotomy. Blood was drawn from the antecubital fossa. The first 5 ml taken was discarded to avoid unwanted platelet activation and the next 27 ml of blood was collected in 3 ml of 3.2% sodium citrate anticoagulant. This blood citrate mixture was then centrifuged at 150 g for 10 min to recover the supernatant platelet rich plasma (PRP). The platelet concentration was measured using a Sysmex KX 21N.
A 96 well black isoplate with clear bottoms was used. Agonists were arranged in rows of Row 1—Arachidonic Acid (AA), Row 2—Collagen, Row 3—ADP, Row 4—Epinephrine, Row 5—Thrombin related activated peptide (TRAP) and Row 6 as a control row containing 4 wells of PRP and 4 wells of Platelet Poor Plasma (PPP). The remaining 6 rows maybe used for additional agonists or specific peptides as required.
Buffer A (6 mM Dextrose, 130 mM NaCl, 9 mM NaHCO3, 10 mM trisodium citrate, 10 mM Tris Base, 3 mM KCl, 0.81 mM KH2PO4, and 0.9 mM MgCl26H2O [pH7.4]) was added to wells 2-8 on each row using a 12 channel pipette. Row 1—10 μl of buffer A was inserted into well 2. Then 20 μl of buffer A was added to each of the wells 3-8 inclusive. Then 50 μl of AA (500 mg/ml stock) was inserted into well 1. 30 μl of AA was removed from well 1 and mixed with buffer A in well 2. 20 μl of the AA/buffer A was removed from well 2 and mixed in well 3. 20 μl is then removed from well 3 and mixed in well 4. This is repeated throughout the row up to and including well 8 with 20 μl left over and discarded. Row 2—Collagen (1.9 mg.ml stock) same process as Row 1. Row 3 & 5 ADP (Row 3) and TRAP (Row 5), wells 2-8 had 20 μl of buffer A placed into each. A quantity of 40 μl of ADP (200 μM stock) was placed into well 1. 20 μl of agonist was removed from well 1 and placed into well 2 where it was then mixed thoroughly with buffer A. This same process was then repeated across the plate with 20 μl left over after well 8. This was then discarded. The same process is repeated for Row 5—TRAP (200 μM stock). […]
The plate is then placed into a Wallac Victor 3 plate reader. The plate is read at time zero (T0) at absorbance 572 nm. […] T3 (3 minutes) read is taken and then shaking recommences until T9 (9 minutes) read. Further reads are taken at T15 (15 minutes) and T18 (18 minutes) with shaking in between each time-point. […]
The data is then normalised from the PPP and PRP absorbance values which represent minimum and maximum aggregation. […]

Row | Structure (SMILES) | platelet reactivity induced by the agonist (dose response curve) | inhibition of the COX pathway, arachidonic acid dose response curve (same male, visit 2, 4 weeks later, aspirin (soluble) 150 mg with clopidogrel 75 mg once daily, FIG. 7)
1 | Nc1ncnc2c1ncn2[C@@H]1O[C@H](COP(=O)(O)OP(=O)(O)O)[C@@H](O)[C@H]1O [ADP] | excessive platelet reactivity | 
2 | CCCCC/C=C\C/C=C\C/C=C\C/C=C\CCCC(=O)O [Arachidonic Acid] | excessive platelet reactivity | 
3 | CNC[C@H](O)c1ccc(O)c(O)c1 [Epinephrine] | excessive platelet reactivity | 
4 | CC(=O)Oc1ccccc1C(=O)O [aspirin (soluble), aspirin] |  | clearly inhibited

— US20100137161A1, “METHOD OF GENERATING A PLATELET […] FOR AN INDIVIDUAL” (ROYAL COLLEGE OF SURGEONS IN IRELAND, priority 2006, published 2010)
